Experimental data published in BindingDB's records for doi:10.1074/jbc.M501100200 (University of Texas Southwestern Medical Center, 2005).

Assays:
Assay in all cases: DHODH Inhibition Assay
[1] = molecular target: T1, Dihydroorotate dehydrogenase (quinone), mitochondrial [30-395] (Homo sapiens, UniProt Q02127)
T1 construct: 30-395
Procedure: (§1) The assays were carried out by using a colorimetric DCIP method, which uses the colorimetric reagent 2, 6-dichlorophenolindophenol as the final electron acceptor. DCIP reduction is stoichiometrically equivalent to oxidation of dihydroorotate. Changes in absorbance were quantified on a plate reader and data were analyzed to measure the reduction of DCIP as a decrease in absorbance at 600 nm. For the determination of the IC50 values (concentration of inhibitor required for 50% inhibition) different inhibitor concentrations were applied.

[2] = molecular target: Dihydroorotate dehydrogenase (quinone), mitochondrial [H185A] (Plasmodium falciparum, UniProt Q54A96, H185A)
Procedure: as §1

[3] = molecular target: Dihydroorotate dehydrogenase (quinone), mitochondrial [R265A] (Plasmodium falciparum, UniProt Q54A96, R265A)
Procedure: as §1

[4] = molecular target: T2, Dihydroorotate dehydrogenase (quinone), mitochondrial (Plasmodium falciparum, UniProt Q54A96); conditions: pH 8; 22 °C
T2 sequence (Q54A96 whole entry): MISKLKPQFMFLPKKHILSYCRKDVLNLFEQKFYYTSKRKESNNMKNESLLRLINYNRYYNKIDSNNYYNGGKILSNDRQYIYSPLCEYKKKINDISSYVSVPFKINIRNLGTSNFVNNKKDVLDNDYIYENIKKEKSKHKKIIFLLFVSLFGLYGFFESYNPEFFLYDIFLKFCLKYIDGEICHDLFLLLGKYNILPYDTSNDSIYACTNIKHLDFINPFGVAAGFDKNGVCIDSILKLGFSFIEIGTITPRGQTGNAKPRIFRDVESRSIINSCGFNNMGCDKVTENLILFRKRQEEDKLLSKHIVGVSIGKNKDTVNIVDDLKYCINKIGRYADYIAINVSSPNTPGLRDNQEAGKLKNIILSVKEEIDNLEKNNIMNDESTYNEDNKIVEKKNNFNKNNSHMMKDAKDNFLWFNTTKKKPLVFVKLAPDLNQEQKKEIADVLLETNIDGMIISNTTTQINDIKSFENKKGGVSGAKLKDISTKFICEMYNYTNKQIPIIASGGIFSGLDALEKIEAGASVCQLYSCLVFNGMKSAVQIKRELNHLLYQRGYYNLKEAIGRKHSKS
Procedure: as §1

Sequence of Dihydroorotate dehydrogenase (quinone), mitochondrial [H185A] (Q54A96 whole entry H185A): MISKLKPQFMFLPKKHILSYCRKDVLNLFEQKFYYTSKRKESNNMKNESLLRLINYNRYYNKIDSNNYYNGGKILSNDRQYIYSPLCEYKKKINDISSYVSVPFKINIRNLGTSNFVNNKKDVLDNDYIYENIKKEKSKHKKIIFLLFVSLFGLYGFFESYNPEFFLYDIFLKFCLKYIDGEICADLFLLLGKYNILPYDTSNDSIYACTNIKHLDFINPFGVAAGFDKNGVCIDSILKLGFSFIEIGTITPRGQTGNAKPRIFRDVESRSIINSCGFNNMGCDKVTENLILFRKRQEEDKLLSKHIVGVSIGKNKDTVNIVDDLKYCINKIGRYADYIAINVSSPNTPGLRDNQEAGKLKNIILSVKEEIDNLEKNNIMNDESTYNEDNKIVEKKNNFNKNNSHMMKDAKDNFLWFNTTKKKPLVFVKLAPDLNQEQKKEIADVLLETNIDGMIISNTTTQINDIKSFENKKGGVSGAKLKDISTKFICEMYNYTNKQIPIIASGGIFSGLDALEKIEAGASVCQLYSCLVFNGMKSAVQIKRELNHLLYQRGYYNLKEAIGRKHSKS
T1 sequence (Q02127 30-395): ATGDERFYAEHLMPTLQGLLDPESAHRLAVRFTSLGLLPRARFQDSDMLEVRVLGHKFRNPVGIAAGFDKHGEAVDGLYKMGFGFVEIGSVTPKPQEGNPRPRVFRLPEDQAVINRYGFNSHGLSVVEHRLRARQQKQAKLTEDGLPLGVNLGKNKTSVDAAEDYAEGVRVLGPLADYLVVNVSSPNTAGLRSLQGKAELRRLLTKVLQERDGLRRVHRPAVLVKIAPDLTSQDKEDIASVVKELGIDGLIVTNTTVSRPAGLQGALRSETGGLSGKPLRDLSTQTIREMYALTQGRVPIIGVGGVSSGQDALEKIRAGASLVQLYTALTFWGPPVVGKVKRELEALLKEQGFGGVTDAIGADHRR
Sequence of Dihydroorotate dehydrogenase (quinone), mitochondrial [R265A] (Q54A96 whole entry R265A): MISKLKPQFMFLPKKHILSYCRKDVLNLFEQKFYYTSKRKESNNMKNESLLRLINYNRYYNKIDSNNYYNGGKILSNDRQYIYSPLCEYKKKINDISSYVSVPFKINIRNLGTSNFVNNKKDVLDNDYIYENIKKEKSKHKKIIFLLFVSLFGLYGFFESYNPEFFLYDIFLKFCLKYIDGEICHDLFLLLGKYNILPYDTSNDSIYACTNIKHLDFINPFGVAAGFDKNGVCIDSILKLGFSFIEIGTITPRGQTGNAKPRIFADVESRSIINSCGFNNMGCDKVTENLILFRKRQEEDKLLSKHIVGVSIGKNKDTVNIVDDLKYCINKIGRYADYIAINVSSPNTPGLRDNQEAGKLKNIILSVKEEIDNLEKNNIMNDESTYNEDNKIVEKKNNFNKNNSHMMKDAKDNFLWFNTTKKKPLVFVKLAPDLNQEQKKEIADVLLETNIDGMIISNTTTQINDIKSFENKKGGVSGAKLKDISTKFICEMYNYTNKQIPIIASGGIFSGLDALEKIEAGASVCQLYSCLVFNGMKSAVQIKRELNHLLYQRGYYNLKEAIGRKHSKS

Compound | IC50 [1] [µM] | IC50 [2] [µM] | IC50 [3] [µM] | IC50 [4] [µM]
Cc1c(C(=O)Nc2ccc(F)c(F)c2)cccc1[N+](=O)[O-] [N-(3,4-difluorophenyl)-2-methyl-3-nitrobenzamide] | 200 | 250 | 0.82 | 0.26
COc1ccccc1NC(=O)Nc1cccc2ccccc12 [3-(2-methoxyphenyl)-1-naphthalen-1-ylurea] | 112 | 140 | 0.24 | 0.23
Cc1c(C(=O)Nc2cc(Cl)cc(Cl)c2)cccc1[N+](=O)[O-] [Asinex compound no. 6] | 200 | 130 | 0.4 | 0.016
O=C(Nc1ccc(Cl)cc1)Nc1cccc2cccnc12 [3-(4-chlorophenyl)-1-quinolin-8-ylurea] | 116 | > 400 | 2 | 0.78
Cc1c(C(=O)Nc2ccc(F)c(Cl)c2)cccc1[N+](=O)[O-] [N-(3-chloro-4-fluorophenyl)-2-methyl-3-nitrobenzamide] | 116 | 130 | 0.5 | 0.1
O=C(Nc1ccccc1F)c1ccc2ccccc2c1 [N-(2-fluorophenyl)naphthalene-2-carboxamide] | 34 | 210 | 0.3 | 0.47
O=C(Nc1ccccc1C(F)(F)F)Nc1cccc2ccccc12 [1-naphthalen-1-yl-3-[2-(trifluoromethyl)phenyl]urea] | > 1000 | > 200 | 0.34 | 0.4
O=C(Nc1ccc(Cl)cc1Cl)c1ccc2ccccc2c1 [N-(2,4-dichlorophenyl)naphthalene-2-carboxamide] | > 50 | > 50 | 0.08 | 0.05
Cc1c(C(=O)Nc2cccc3ccccc23)cccc1[N+](=O)[O-] [2-methyl-N-(naphthalen-1-yl)-3-nitrobenzamide] | 100 | 180 | 0.48 | 0.08
Cc1c(C(=O)Nc2ccc(Cl)c(Cl)c2)cccc1[N+](=O)[O-] [N-(3,4-dichlorophenyl)-2-methyl-3-nitrobenzamide] | 72 | 60 | 2.8 | 0.08
Cc1c(C(=O)Nc2cccc(C(F)(F)F)c2)cccc1[N+](=O)[O-] [2-methyl-3-nitro-N-[3-(trifluoromethyl)phenyl]benzamide] | 150 | 120 | 0.37 | 0.08
Cc1cc(Br)ccc1NC(=O)c1ccc2ccccc2c1 [ChemBridge compound no. 2] | 210 | 570 | 0.05 | 0.05
Cc1c(C(=O)Nc2cccc(Br)c2)cccc1[N+](=O)[O-] [N-(3-bromophenyl)-2-methyl-3-nitrobenzamide] | 105 | 140 | 1.2 | 0.06
